Peptide text beside a SMILES is read from it. * marks the point of attachment. Cbz = O=C(OCc1ccccc1)*
What was measured:
[1] = tested on: insulin mRNA; experiment: RT-PCR for endogenous insulin mRNA in T6PN/E47MER cells; format: cell-based, human
Excerpt: (A) Insulin mRNA is barely detectable by non-quantitative RT-PCR in the absence of tamoxifen in two biological replicates of T6PN/E47^MER cells.
Cells were exposed to 5 micromolar compound and also had 0.5 micromolar tamoxifen. […] […] Both GFP and insulin mRNA levels are normalized for GAPDH mRNA to rule out nonspecific effects of the compounds on transcription.
(§1) To increase the level of insulin expression, TRM-6 cells expressing PDX-1 and NeuroD1 (T6PN cells) (Follenzi et al., Nature Genet. 25:217-222, 2000) were infected with an E47^MER retroviral vector and selected by FACS. E47^MER consists of the class I bHLH factor E47 which is a potent insulin transactivator fused to a mutated estrogen receptor that renders it functional only in the presence of tamoxifen. […] To determine whether the effects of E47 were limited to insulin expression or had more general effects on beta-cell differentiation, a panel of other beta-cell genes was examined. […] Thus, T6PN/E47^MER cells express a substantial number of important beta-cell genes, making them an appropriate target for the insulin promoter screens described herein.
Second Confirmatory Assay. Compounds that passed the primary confirmatory assay were passed on for further testing in a secondary confirmatory assay. This consisted of RT-PCR of GFP and endogenous insulin mRNA (FIG. 7). Both GFP and endogenous insulin RT-PCR assays are performed because of the possibility that a compound may affect the 1.4 kb insulin promoter transgene but not the endogenous insulin promoter, which may be under more complex control.

[2] = tested on: myosin heavy chain gene; experiment: RT-PCR for myosin heavy chain gene in T6PN/E47MER cells; format: cell-based, human
[3] = tested on: human insulin promoter-eGFP reporter in T6PN/E47MER cells; experiment: insulin promoter-eGFP reporter fluorescence in T6PN/E47MER cells; format: cell-based; conditions: T6PN/E47MER cells infected with insulin promoter-eGFP lentiviral vector
Excerpt: as §1
Assay Protocol. The following is a detailed assay protocol for the primary assay, i.e., first assay performed in a testing scheme to identify biologically active chemical entities in a screening mode: […]

[4] = tested on: human insulin gene (hINS) promoter-eGFP reporter in MIN6 mouse insulinoma cells; experiment: insulin promoter-destabilized eGFP reporter fluorescence in engineered MIN6 cells; format: cell-based; conditions: 384-well plates, three-fold titration series, imaged 48 hours after compound addition
Excerpt: We have developed a screen for small molecule compounds that modulate insulin promoter activity. Identifying these compounds and eventually their targets should provide insights into the signaling pathways that control insulin expression. The assay is based upon a mouse insulinoma, MIN6, that normally expresses insulin mRNA. This cell was engineered to stably contain two cassettes that use a fluorescent reporter protein to monitor insulin promoter activity and a housekeeping gene activity. The primary assay is to detect compounds that alter expression of an insulin promoter-destabilized eGFP reporter cassette in mouse insulinoma (MIN6) cells relative to that of a housekeeping gene, heat shock protein 68, the promoter of which is used in a second cassette to direct expression of destabilized dsRED2. […]
Engineering of MIN6 for Image-Based, High Throughput Screening. […] Viral supernatants harvested at 24 to 72 hours were 0.45 μm filtered and concentrated 100- to 200-fold by ultrafiltration using Centricon Plus-80 units (Millipore, Bedford, Mass., USA), yielding titers of approximately 10^9 transducing units (TU) per milliliter 5, determined by transduction of 293T cells with serial dilutions of the pRRL.SIN-18.cPPT.hPGK-EGFP.WPRE viral supernatant and FACS analysis to determine the percentage of EGFP-expressing cells. […]

Row | SMILES | insulin mRNA (RT-PCR), positive control ([1]; 4 micromolar tamoxifen control) | insulin mRNA by non-quantitative RT-PCR ([1]; T6PN/E47MER cells with versus without tamoxifen, two biological replicates) | insulin mRNA by quantitative real-time RT-PCR ([1]; T6PN/E47MER cells, E47 activity induced by tamoxifen, two biological replicates) | induction of insulin gene expression ([1]; induction of E47 activity (E47MER functional only with tamoxifen) in T6PN cells) [fold] | myosin heavy chain gene induction [2] | eGFP induction [3] | eGFP fluorescence [4]
1 | CC/C(=C(\c1ccccc1)c1ccc(OCCN(C)C)cc1)c1ccccc1 [tamoxifen] | maximum induction of insulin mRNA | strongly induced | dramatic upregulation of insulin mRNA | 100 | not induced | High levels of eGFP | –
2 | CC(C)C[C@@H](C=O)NC(=O)[C@H](CC(C)C)NC(=O)[C@H](CC(C)C)NC(=O)OCc1ccccc1 [MG132] (Cbz-Leu-Leu-Leu-aldehyde) | – | – | – | – | – | – | dose-dependent increase in eGFP fluorescence
3 | C[C@@H]1C[C@@H]([C@H](O)CC2CC(=O)NC(=O)C2)C(=O)[C@@H](C)C1 [cyclohexamide] | – | – | – | – | – | – | decrease in fluorescence intensity

— patent US7910305B2, “Methods for screening for compounds that modulate insulin promoter activity” (The Burnham Institute for Medical Research, priority 2005, dated 2011)
